Format in all cases: biochemical
Experiment [1] has as its target T1, human liver α-mannosidase (Lysosomal) (Homo sapiens, UniProt O00754).
T1 construct: from tissue; host or cells: human liver
T1 sequence (O00754 50-1011): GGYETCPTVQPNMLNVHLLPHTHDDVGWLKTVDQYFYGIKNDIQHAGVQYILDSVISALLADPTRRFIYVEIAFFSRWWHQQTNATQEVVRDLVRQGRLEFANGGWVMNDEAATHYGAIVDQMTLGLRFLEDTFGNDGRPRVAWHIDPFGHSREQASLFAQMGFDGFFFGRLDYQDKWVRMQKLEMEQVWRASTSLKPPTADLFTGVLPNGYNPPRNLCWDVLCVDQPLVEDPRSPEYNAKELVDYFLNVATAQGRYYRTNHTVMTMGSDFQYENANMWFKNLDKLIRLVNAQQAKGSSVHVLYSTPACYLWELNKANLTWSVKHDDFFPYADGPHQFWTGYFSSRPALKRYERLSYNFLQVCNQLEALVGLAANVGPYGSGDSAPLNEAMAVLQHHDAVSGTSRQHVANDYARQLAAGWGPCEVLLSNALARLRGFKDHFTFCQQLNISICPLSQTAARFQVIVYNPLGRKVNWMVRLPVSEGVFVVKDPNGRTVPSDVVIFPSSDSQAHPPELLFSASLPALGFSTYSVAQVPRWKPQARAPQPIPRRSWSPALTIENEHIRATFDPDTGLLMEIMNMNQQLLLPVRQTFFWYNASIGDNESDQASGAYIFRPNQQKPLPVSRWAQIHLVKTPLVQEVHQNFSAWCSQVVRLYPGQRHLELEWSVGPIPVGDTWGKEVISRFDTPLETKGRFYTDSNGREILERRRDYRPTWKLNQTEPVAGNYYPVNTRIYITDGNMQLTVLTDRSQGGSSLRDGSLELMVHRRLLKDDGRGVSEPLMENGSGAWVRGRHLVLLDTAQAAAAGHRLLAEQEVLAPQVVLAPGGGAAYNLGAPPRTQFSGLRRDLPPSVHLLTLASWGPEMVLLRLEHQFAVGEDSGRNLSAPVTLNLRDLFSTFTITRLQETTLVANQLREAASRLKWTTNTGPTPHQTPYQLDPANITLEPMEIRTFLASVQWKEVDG
The experiment in a line: Human liver glycosidase inhibition, lysosomal α-mannosidase. Conditions: 1 mM concentration of inhibitor; hydrolysis of 4-umbelliferyl pyrranosides; read-out: % Inhibition α-Mannosidases Lysosomal.

Experiment [2] has as its target T2, human liver α-mannosidase (Golgi II) (Homo sapiens, UniProt Q16706).
T2 construct: from tissue; host or cells: human liver
T2 sequence (Q16706 1-1144): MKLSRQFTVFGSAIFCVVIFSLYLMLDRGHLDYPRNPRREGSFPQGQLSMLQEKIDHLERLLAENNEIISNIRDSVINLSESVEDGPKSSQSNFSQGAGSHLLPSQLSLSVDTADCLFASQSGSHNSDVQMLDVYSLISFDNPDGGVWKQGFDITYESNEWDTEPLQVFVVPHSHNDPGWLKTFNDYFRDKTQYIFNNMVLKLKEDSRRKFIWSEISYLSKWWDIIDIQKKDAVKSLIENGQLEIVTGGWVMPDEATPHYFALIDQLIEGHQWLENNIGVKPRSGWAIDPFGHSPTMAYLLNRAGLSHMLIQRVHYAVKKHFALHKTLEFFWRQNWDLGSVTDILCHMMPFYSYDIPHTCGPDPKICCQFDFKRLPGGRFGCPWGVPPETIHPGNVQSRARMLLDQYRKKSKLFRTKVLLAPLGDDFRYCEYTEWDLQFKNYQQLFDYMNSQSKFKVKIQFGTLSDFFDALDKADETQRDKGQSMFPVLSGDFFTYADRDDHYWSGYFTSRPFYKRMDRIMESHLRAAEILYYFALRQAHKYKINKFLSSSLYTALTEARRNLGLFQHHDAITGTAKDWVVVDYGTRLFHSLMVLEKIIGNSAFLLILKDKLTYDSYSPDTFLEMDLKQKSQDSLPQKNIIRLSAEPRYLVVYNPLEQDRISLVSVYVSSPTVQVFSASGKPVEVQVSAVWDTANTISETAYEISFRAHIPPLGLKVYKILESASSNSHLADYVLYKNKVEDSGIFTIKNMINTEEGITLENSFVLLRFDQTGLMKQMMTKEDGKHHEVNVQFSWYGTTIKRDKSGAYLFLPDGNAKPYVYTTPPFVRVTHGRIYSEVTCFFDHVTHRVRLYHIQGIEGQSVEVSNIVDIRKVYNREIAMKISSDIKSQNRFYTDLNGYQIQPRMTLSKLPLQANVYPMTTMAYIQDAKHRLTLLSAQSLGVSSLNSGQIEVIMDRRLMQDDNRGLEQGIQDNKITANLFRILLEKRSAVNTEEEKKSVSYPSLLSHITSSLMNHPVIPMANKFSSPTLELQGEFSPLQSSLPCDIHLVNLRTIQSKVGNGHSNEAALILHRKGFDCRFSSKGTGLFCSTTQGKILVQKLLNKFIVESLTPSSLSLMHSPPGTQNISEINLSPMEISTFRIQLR
The experiment in a line: Human liver glycosidase inhibition, Golgi II α-mannosidase. The note with it: 1 mM concentration of inhibitor; hydrolysis of 4-umbelliferyl pyrranosides; read-out: % Inhibition α-Mannosidases Golgi II.

In experiment [3] the target is T3, human liver α-mannosidase (Neutral) (Homo sapiens, UniProt Q9NTJ4).
T3 construct: from tissue; host or cells: human liver
T3 sequence (Q9NTJ4 1-1040): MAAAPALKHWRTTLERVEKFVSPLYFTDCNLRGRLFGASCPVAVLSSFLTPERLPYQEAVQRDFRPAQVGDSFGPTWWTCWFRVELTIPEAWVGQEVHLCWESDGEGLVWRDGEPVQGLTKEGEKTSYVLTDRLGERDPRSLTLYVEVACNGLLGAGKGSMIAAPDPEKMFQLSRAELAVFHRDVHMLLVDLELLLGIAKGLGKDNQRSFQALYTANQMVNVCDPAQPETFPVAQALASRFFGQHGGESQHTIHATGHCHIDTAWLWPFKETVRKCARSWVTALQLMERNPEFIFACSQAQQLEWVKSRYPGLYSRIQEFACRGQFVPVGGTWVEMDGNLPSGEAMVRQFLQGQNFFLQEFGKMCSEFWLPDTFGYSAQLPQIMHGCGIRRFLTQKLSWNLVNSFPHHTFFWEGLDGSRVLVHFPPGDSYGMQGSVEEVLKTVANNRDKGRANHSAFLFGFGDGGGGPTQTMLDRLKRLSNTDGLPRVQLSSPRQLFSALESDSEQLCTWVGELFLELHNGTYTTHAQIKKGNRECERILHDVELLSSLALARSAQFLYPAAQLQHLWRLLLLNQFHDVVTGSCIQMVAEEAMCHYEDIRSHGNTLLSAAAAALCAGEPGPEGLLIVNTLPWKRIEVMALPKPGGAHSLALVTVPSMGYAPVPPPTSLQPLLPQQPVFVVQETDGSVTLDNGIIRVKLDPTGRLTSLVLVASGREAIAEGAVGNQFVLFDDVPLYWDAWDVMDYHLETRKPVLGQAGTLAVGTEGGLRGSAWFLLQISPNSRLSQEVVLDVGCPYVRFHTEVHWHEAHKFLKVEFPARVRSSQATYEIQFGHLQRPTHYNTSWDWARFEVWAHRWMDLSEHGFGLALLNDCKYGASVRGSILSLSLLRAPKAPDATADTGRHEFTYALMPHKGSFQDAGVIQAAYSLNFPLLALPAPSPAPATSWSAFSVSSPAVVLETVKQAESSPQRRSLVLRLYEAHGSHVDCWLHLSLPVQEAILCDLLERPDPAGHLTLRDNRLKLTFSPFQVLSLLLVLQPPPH
The experiment in a line: Human liver glycosidase inhibition, neutral α-mannosidase. The note with it: 1 mM concentration of inhibitor; hydrolysis of 4-umbelliferyl pyrranosides; read-out: % Inhibition α-Mannosidases Neutral.

Experiment [4] deals with T4, human liver α-fucosidase (Homo sapiens, UniProt P04066).
T4 construct: from tissue; host or cells: human liver
T4 sequence (P04066 32-466): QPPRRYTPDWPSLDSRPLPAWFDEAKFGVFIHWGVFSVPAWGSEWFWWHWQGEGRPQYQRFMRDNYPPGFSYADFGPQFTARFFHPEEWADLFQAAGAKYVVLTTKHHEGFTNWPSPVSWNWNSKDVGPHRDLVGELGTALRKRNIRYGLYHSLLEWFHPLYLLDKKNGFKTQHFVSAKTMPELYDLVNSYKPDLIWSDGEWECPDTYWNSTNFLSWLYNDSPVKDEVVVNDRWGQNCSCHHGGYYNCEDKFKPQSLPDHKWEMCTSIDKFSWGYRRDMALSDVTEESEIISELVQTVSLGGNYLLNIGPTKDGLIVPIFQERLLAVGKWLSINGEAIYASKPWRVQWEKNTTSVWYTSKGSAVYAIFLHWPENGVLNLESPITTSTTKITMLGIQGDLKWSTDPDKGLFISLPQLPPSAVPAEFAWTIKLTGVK
Briefly: Human liver glycosidase inhibition, α-fucosidase. Conditions: for inhibition at 1000 µM: 1 mM concentration of inhibitor, hydrolysis of 4-umbelliferyl pyrranosides; for inhibition of α-fucosidase (in words): human liver glycosidases.

Experiment [5] deals with human α-mannosidases. Briefly: Human liver glycosidase inhibition, α-mannosidases. Conditions: human liver glycosidases.

On to `OC[C@@H]1N[C@H](CO)[C@@H](O)[C@@H](O)[C@@H]1O` [6-Epi-homomannojirimycin, 2,6-dideoxy-2,6-imino-L-glycero-D-talo-heptitol], for which the inhibition at 1000 µM in experiment [1] is 0%; in experiment [2], 0%; in experiment [3], 0%; in experiment [4], 96%. In addition, in experiment [4], the “inhibition of α-fucosidase (in words)” value is “powerful inhibitors”. For the same compound, the “inhibition of α-mannosidases (in words)” value in experiment [5] is reported as “did not inhibit any α-mannosidase”.
Turning to `OC[C@H]1NC[C@@H](O)[C@@H](O)[C@@H]1O` [Deoxymannojirimycin, reference compound], the inhibition at 1000 µM in experiment [1] came out at 58%; in experiment [2] it was 45%; in experiment [3], 21%; in experiment [4], 91%. Besides, in experiment [4], the “inhibition of α-fucosidase (in words)” value was “powerful inhibitors”.
Turning to `OC[C@H]1N[C@H](CO)[C@@H](O)C(O)[C@@H]1O` (stereo partly drawn) [Homomannojirimycin, 2,6-dideoxy-2,6-imino-D-glycero-D-talo-heptitol], the inhibition at 1000 µM in experiment [1] amounted to 49%; in experiment [2] it was 56%; in experiment [3], 30%; in experiment [4], 29%. Further, the “inhibition of α-fucosidase (in words)” value in experiment [4] is recorded as “only a weak inhibitor”.

The values above are taken from EP0427693A1, “Method for azide displacement of alpha-triflates of 1,5-lactones” (MONSANTO COMPANY, priority 1989, dated 1991).
